ChEMBL document CHEMBL1135335, “Multisubstrate analogue inhibitors of glucosamine-6-phosphate synthase from Candida albicans” (Bioorg Med Chem Lett, 2002)
pIC50: −log10 of the molar value. Active and inactive are the calls of the source. The rule behind the calls is not given here.

Test system: Saccharomyces cerevisiae
Assay: Inhibitory activity against glucosamine-6-phosphate synthase (GFAT) isolated from Saccharomyces cerevisiae at concentrations <10 mM; NI means no inhibition

| SMILES | inhibition |
| --- | --- |
| NC(CP(=O)(O)O)C(=O)O (configuration not stated) | inactive |

Test system: not listed separately
Assay: Concentration required to inhibit glucosamine-6-phosphate synthase (GFAT) isolated from Candida albicans

| SMILES | pIC50 |
| --- | --- |
| NC(CP(=O)(O)O)C(=O)O (configuration not stated) | 8.00 |
| NC(CCP(=O)(O)O)C(=O)O (configuration not stated) | 5.00 |
| NC(CCCCP(=O)(O)O)C(=O)O (configuration not stated) | 3.60 |
| NC(CCCCCP(=O)(O)O)C(=O)O (configuration not stated) [AP-7] | 3.57 |
| O=C(O)[C@@H]1C[C@H](CP(=O)(O)O)CCN1 [SELFOTEL] | 6.40 |
| NC(CCCP(=O)(O)O)C(=O)O (configuration not stated) | 3.68 |
